Assay results from US20210171948A1, “COMPOSITIONS AND METHODS FOR TARGETING GLYPICAN-2 IN THE TREATMENT OF CANCER” (Shepherd Therapeutics, Inc., priority 2019, published 2021).

Key:
SK-N-BE2 cells [1] = experiment: Cyclophosphamide IC50 in siRNA-transfected cells, Cell Titer Glo 2.0 viability (Example 7); assay type: cell-based
Description: (§1) GPC2 mRNA expression was reduced with the indicated siRNAs and changes in cell viability were assessed in multiple neuroblastoma cell lines. Cells were transfected with either a control siRNA or with GPC2 siRNA sequences 3, 5 or 7 from Table 7 using the RNAiMAX Lipofectamine kit (Invitrogen, Carlsbad, Calif.) as previously described in 96 wells for viability assays. Cyclophosphamide was added at increasing concentrations (0-20 uM) to transfected cells at 24 hr post transfection. Following a 72 hour incubation period, viability measurements were made using Cell Titer Glo 2.0.

CHLA-90 cells [2] = experiment: as above; assay type: cell-based; settings: CHLA-90 cells transfected with the labelled siRNA; cyclophosphamide added 24 hr post transfection, 72 hour incubation
Description: as §1

CHP212 cells [3] = experiment: as above; assay type: cell-based
Description: as §1

SH-SY5Y cells [4] = experiment: as above; assay type: cell-based
Description: as §1

SK-N-BE2 cells [5] = experiment: Doxorubicin IC50 in siRNA-transfected cells, Cell Titer Glo viability (Example 8); assay type: cell-based; settings: SK-N-BE2 cells transfected with the labelled siRNA; doxorubicin added 24 hours post transfection, 72 hour incubation
Description: (§2) GPC2 mRNA expression was reduced and changes in cell viability were assessed in multiple neuroblastoma cell lines. Cells were transfected with either a control siRNA or with GPC-2 siRNA sequences 3, 5 or 7 from Table 7 using the RNAiMAX Lipofectamine kit (Invitrogen, Carlsbad, Calif.) as previously described in 96 wells for viability assays. Doxorubicin was added at increasing concentrations (0-5 uM) to transfected cells at 24 hours post transfection. Following a 72 hour incubation period, viability measurements were made using Cell Titer Glo.

CHLA-90 cells [6] = experiment: as above; assay type: cell-based; settings: CHLA-90 cells transfected with the labelled siRNA; doxorubicin added 24 hours post transfection, 72 hour incubation
Description: as §2

CHP212 cells [7] = experiment: as above; assay type: cell-based
Description: as §2

SH-SY5Y cells [8] = experiment: as above; assay type: cell-based; settings: SH-SY5Y cells transfected with the labelled siRNA; doxorubicin added 24 hours post transfection, 72 hour incubation
Description: as §2

GPC2 mRNA [9] = experiment: GPC2 mRNA knockdown in neuroblastoma cell lines, representative data from a separate experiment (Tables 10-14); assay type: cell-based, human; parameters: concentration or dose not given beside the values
GPC2 mRNA [10] = experiment: GPC2 mRNA knockdown in neuroblastoma cell lines (Example 4); assay type: cell-based, human; settings: CHP212, SKNAS and SHSY5Y neuroblastoma cell lines; 96 hour incubation (FIG. 3A)
Description: GPC2 mRNA knockdown was assessed in multiple neuroblastoma cell lines. Cells were transfected with either a scrambled control siRNA, with GPC2 siRNA sequences 3 or 5 from Table 7, or with siRNA sequences generated by Dharmacon (sequences 12-15 from Table 7) using the RNAiMAX Lipofectamine kit (Invitrogen, Carlsbad, Calif.) as previously described. Following a 96 hour incubation period, total RNA samples were collected to compare knockdown efficiency and viability was measured in parallel plated cells.
The extent of GPC2 mRNA reduction was assessed with additional GPC2 siRNA sequences in the CHP212 neuroblastoma cell line. Cells were transfected with either a scrambled control siRNA or with GPC2 siRNA sequences 3 or 5, or with siRNA sequences 6-11 (Sigma) using the RNAiMAX Lipofectamine kit (Invitrogen, Carlsbad, Calif.) as previously described. Following a 96 hour incubation period, total RNA samples were collected and viability was measured in parallel plated cells.
The extent of GPC2 mRNA reduction (knockdown) and corresponding protein level expression changes were assessed in three neuroblastoma cell lines following siRNA knockdown of GPC2. The CHP212 neuroblastoma cell line (FIG. 5A and FIG. 5D), the SH-SY5Y neuroblastoma cell line (FIG. 5B and FIG. 5E) and the CHLA90 neuroblastoma cell line (FIG. 5C and FIG. 5F) were transfected with GPC2 siRNA sequences 5 and 7 from Table 7 and a scrambled control siRNA using the RNAiMAX Lipofectamine kit (Invitrogen, Carlsbad, Calif.) as previously described. Following a 24, 48, or 72 hour incubation period, cells were washed and total RNA was isolated for measuring GPC2 mRNA expression. For protein analysis, cells were fixed, immunostained using an antibody against GPC2 protein, protein expression was measured via flow cytometry. As shown, GPC2 mRNA knockdown was observed beginning at the 24 hr time point and lasted for at least 72 hours. GPC2 protein expression started to decrease at the 48 hr time point.

SK-N-BE2 cells [11] = experiment: Carboplatin IC50 in siRNA-transfected cells, Cell Titer Glo 2.0 viability (Example 6); assay type: cell-based
Description: (§3) GPC2 mRNA expression was reduced using the indicated siRNAs and changes in cell viability were assessed in multiple neuroblastoma cell lines. Cells were transfected with either a control siRNA or with GPC2 siRNA sequences 3, 5 or 7 from Table 7 using the RNAiMAX Lipofectamine kit (Invitrogen, Carlsbad, Calif.) as previously described in 96 wells for viability assays. Carboplatin was added at increasing concentrations (0 to 150 uM) to transfected cells at 24 hours post transfection. Following a 72 hour incubation period, viability measurements were made using Cell Titer Glo 2.0.

CHLA-90 cells [12] = experiment: as above; assay type: cell-based
Description: as §3

CHP212 cells [13] = experiment: as above; assay type: cell-based
Description: as §3

SH-SY5Y cells [14] = experiment: as above; assay type: cell-based; settings: SH-SY5Y cells transfected with the labelled siRNA; carboplatin added 24 hours post transfection, 72 hour incubation
Description: as §3

## GPC2 siRNA 3: siRNA duplex: sense CCUGCUUGGACCUCGAUAA[dT][dT] (SEQ ID NO: 207), anti-sense UUAUCGAGGUCCAAGCAGG[dT][dT] (SEQ ID NO: 208) (sense CCUGCUUGGACCUCGAUAANN; antisense UUAUCGAGGUCCAAGCAGGNN; 3' dTdT overhangs, chemistry not fully specified; listed as Homo sapiens)
SK-N-BE2 cells [1]; SK-N-BE2
  Data Summary: effect of knockdown on sensitivity to cyclophosphamide: increases sensitivity to
SK-N-BE2 cells [1]; SK-N-BE2 cells transfected with the labelled siRNA, cyclophosphamide added 24 hr post transfection, 72 hour incubation
  IC50: 2.41 µM
CHLA-90 cells [2]
  IC50: 30 µM
CHP212 cells [3]; CHP212
  Data Summary: effect of knockdown on sensitivity to cyclophosphamide: increases sensitivity to
CHP212 cells [3]; CHP212 cells transfected with the labelled siRNA, cyclophosphamide added 24 hr post transfection, 72 hour incubation
  IC50: 0.87 µM
SH-SY5Y cells [4]; SH-SY5Y
  Data Summary: effect of knockdown on sensitivity to cyclophosphamide: increases sensitivity to
SH-SY5Y cells [4]; SH-SY5Y cells transfected with the labelled siRNA, cyclophosphamide added 24 hr post transfection, 72 hour incubation
  IC50: 1.5 µM
SK-N-BE2 cells [5]
  IC50: 1 µM
CHLA-90 cells [6]
  IC50: 0.35 µM
CHP212 cells [7]; CHP212
  Data Summary: effect of knockdown on sensitivity to doxorubicin: does not increase sensitivity
CHP212 cells [7]; CHP212 cells transfected with the labelled siRNA, doxorubicin added 24 hours post transfection, 72 hour incubation
  IC50: 0.03 µM
SH-SY5Y cells [8]
  IC50: 0.08 µM
GPC2 mRNA [9]; CHLA-90, compared to scrambled siRNA control
  % KD; percent GPC2 mRNA reduction (knockdown): 50%
GPC2 mRNA [9]; CHLA-136, compared to scrambled siRNA control
  % KD; percent GPC2 mRNA reduction (knockdown): 25%
GPC2 mRNA [9]; CHLA-172, compared to scrambled siRNA control
  % KD; percent GPC2 mRNA reduction (knockdown): 5%
GPC2 mRNA [9]; CHP212, compared to scrambled siRNA control
  % KD; percent GPC2 mRNA reduction (knockdown): 60%
GPC2 mRNA [9]; KELLY, compared to scrambled siRNA control
  % KD; percent GPC2 mRNA reduction (knockdown): 65%
GPC2 mRNA [9]; SH-SY5Y, compared to scrambled siRNA control
  % KD; percent GPC2 mRNA reduction (knockdown): 55%
GPC2 mRNA [9]; SK-N-BE2, compared to scrambled siRNA control
  % KD; percent GPC2 mRNA reduction (knockdown): 55%
GPC2 mRNA [9]; SKNAS, compared to scrambled siRNA control
  % KD; percent GPC2 mRNA reduction (knockdown): 40%
GPC2 mRNA [10]
  Degree of GPC2 knockdown among sequences 3, 5, 12-15: greater
SK-N-BE2 cells [11]; SK-N-BE2
  Data Summary: effect of knockdown on sensitivity to carboplatin: increases sensitivity to
SK-N-BE2 cells [11]; SK-N-BE2 cells transfected with the labelled siRNA, carboplatin added 24 hours post transfection, 72 hour incubation
  IC50: 27.9 µM
CHLA-90 cells [12]; CHLA-90
  Data Summary: effect of knockdown on sensitivity to carboplatin: increases sensitivity to
CHLA-90 cells [12]; CHLA-90 cells transfected with the labelled siRNA, carboplatin added 24 hours post transfection, 72 hour incubation
  IC50: 100 µM
CHP212 cells [13]; CHP212
  Data Summary: effect of knockdown on sensitivity to carboplatin: increases sensitivity to
CHP212 cells [13]; CHP212 cells transfected with the labelled siRNA, carboplatin added 24 hours post transfection, 72 hour incubation
  IC50: 19.9 µM
SH-SY5Y cells [14]
  IC50: 2.3 µM
